Test systems include PC-3; K562; SN12C; NCI-H23; Malme-3M; UO-31; Hs-578T; MOLT-4; OVCAR-5; U-251; CCRF-CEM; M14; SW-620; EKVX; SNB-19; SF-295; UACC-257; NCI-H522; HCT-116; SF-539.
Common to all, as to assay: inhibition of tumour cell growth, NCI panel, 48 h

The text below walks through data of ChEMBL document CHEMBL1201862, “PubChem BioAssay data set” (2004).

SMILES strings stand for the structures.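 48-hour exposure; five concentrations; linearly interpolated endpoints. GI50 marks 50% less growth.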 Active and inactive are the calls of the source. Cut-off read from the data, not from the text of the source: active = GI50 up to about 1.1 µM and inactive = higher.

For `C=C1C(=O)O[C@@H]2C[C@@H](C)[C@@H]3C=CC(=O)[C@@]3(C)[C@@H](OC(=O)CCCC(=O)O[C@H]3[C@@H]4C(=C)C(=O)O[C@@H]4C[C@@H](C)[C@@H]4C=CC(=O)[C@]43C)[C@H]12`, the GI50 was 0.0931 µM (active) with PC-3; < 0.01 µM (active) in the assay with K562; 0.0402 µM (active) with SN12C; 0.0853 µM (active) in the assay with NCI-H23; 0.0176 µM (active) in the assay on Malme-3M; 0.135 µM (active) with UO-31. The GI50 in the assay with Hs-578T is 0.104 µM (active); with MOLT-4, < 0.01 µM (active); with OVCAR-5 it was 0.139 µM (active); in the assay with U-251, 0.101 µM (active); with CCRF-CEM, < 0.01 µM (active); in the assay with M14 it was 0.0217 µM (active). Moreover, the GI50 was 0.0144 µM (active) in the assay with SW-620; 0.0875 µM (active) with EKVX; 1.05 µM (active) in the assay on SNB-19; 0.989 µM (active) in the assay with SF-295; 0.114 µM (active) in the assay with UACC-257; 0.0102 µM (active) in the assay on NCI-H522. The GI50 in the assay with HCT-116 was 0.0143 µM (active); in the assay on SF-539, 0.0762 µM (active).
Turning to `C=C1C[C@@H]2O[C@H]3[C@H]4[C@@H](C[C@@H](C)[C@@H](OC(C)=O)[C@H]42)[C@@H](C)CO[C@@]3(C)[C@H](OC(C)=O)C[C@H]1O`, the GI50 in the assay on PC-3 was 95.9 µM (inactive); in the assay on K562 it was 25.7 µM (inactive); in the assay with SN12C it was > 100 µM (inactive); with NCI-H23 it was > 100 µM (inactive); in the assay on Malme-3M, > 100 µM (inactive); in the assay with UO-31, 77.6 µM (inactive). In addition, the GI50 in the assay with Hs-578T was > 100 µM (inactive); in the assay on MOLT-4, 53 µM (inactive); in the assay on OVCAR-5, > 100 µM (inactive); in the assay with U-251, > 100 µM (inactive); in the assay on CCRF-CEM it was 25.9 µM (inactive); with M14, > 100 µM (inactive). Besides, the GI50 with SW-620 is 55.6 µM (inactive); with EKVX it was > 100 µM (inactive); in the assay on SNB-19, > 100 µM (inactive); in the assay on SF-295 it was > 100 µM (inactive); in the assay with UACC-257, > 100 µM (inactive); in the assay on NCI-H522 it was 48 µM (inactive). Besides, the GI50 in the assay on HCT-116 and in the assay on SF-539 was > 100 µM (inactive) each time.
Take `O=C1C=CC(=O)C(CNc2ccc(C(=O)OC34CC5CC(CC(C5)C3)C4)cc2)=C1Br`: the GI50 is 4.76 µM (inactive) in the assay with PC-3; 5.58 µM (inactive) in the assay with K562; 11.1 µM (inactive) with SN12C; 7.35 µM (inactive) with NCI-H23; 4.9 µM (inactive) with Malme-3M; 6.75 µM (inactive) in the assay on UO-31. In addition, the GI50 with Hs-578T was 6.35 µM (inactive); in the assay with MOLT-4 it was 2.24 µM (inactive); with OVCAR-5, 16.7 µM (inactive); with U-251, 4 µM (inactive); in the assay with CCRF-CEM, 1.99 µM (inactive); in the assay with M14, 13.4 µM (inactive). Further, the GI50 was 18.2 µM (inactive) with SW-620; 6.46 µM (inactive) with EKVX; 15.6 µM (inactive) with SNB-19; 14.1 µM (inactive) with SF-295; 13.5 µM (inactive) in the assay with UACC-257; 0.435 µM (active) in the assay with NCI-H522. Also, the GI50 in the assay with HCT-116 was 12.7 µM (inactive); in the assay on SF-539 it was 1.59 µM (inactive).
For `C=CCCCCCCCCCOC1C=CC(OC(C)=O)C(COC(C)=O)O1` (stereo not given), the GI50 in the assay with PC-3 was 32 µM (inactive); in the assay with K562, 1.99 µM (inactive); in the assay with SN12C, 42.8 µM (inactive); in the assay with NCI-H23 it was 32.1 µM (inactive); in the assay on Malme-3M it was 35.2 µM (inactive); with UO-31 it was 44.8 µM (inactive). The GI50 was 28.9 µM (inactive) in the assay on Hs-578T; 24.5 µM (inactive) in the assay with MOLT-4; > 100 µM (inactive) in the assay on OVCAR-5; 39.6 µM (inactive) in the assay with U-251; 39.1 µM (inactive) with CCRF-CEM; 30.1 µM (inactive) in the assay with M14. Also, the GI50 with SW-620 is 57 µM (inactive); in the assay on EKVX, 47.6 µM (inactive); in the assay on SNB-19, > 100 µM (inactive); with SF-295, 72.9 µM (inactive); with UACC-257, 29 µM (inactive); in the assay with NCI-H522, 26.5 µM (inactive). The GI50 in the assay with HCT-116 is 53.2 µM (inactive); in the assay on SF-539, > 100 µM (inactive).
For the compound `CC(C)(C)N/N=C(\C(=O)Nc1ccc([N+](=O)[O-])cc1[N+](=O)[O-])c1nc2ccc([N+](=O)[O-])cc2nc1O`, the GI50 is 96.4 µM (inactive) in the assay on PC-3; 37 µM (inactive) in the assay on K562; > 100 µM (inactive) in the assay with SN12C; 86.1 µM (inactive) with NCI-H23; > 100 µM (inactive) with Malme-3M; 82.2 µM (inactive) with UO-31. The GI50 is 82.6 µM (inactive) in the assay on Hs-578T; 35.2 µM (inactive) with MOLT-4; > 100 µM (inactive) in the assay on OVCAR-5; > 100 µM (inactive) with U-251; 98.9 µM (inactive) in the assay with CCRF-CEM; > 100 µM (inactive) in the assay with M14. The GI50 in the assay with SW-620 was > 100 µM (inactive); in the assay with EKVX, > 100 µM (inactive); with SNB-19, > 100 µM (inactive); with SF-295, 31.5 µM (inactive); in the assay with UACC-257 it was > 100 µM (inactive); in the assay on NCI-H522 it was 66.7 µM (inactive). Further, the values for the GI50 in the assay on HCT-116 and in the assay with SF-539 were 68.5 µM (inactive) and > 100 µM (inactive), respectively.
As for `CCCC(=O)Nc1cn(COC)c(C(=O)N2C[C@@H]3C[C@]34C2=CC(=O)c2[nH]cc(C)c24)n1`, the GI50 was 6.81 µM (inactive) with PC-3; 4.35 µM (inactive) with K562; 11.2 µM (inactive) with SN12C; 2.9 µM (inactive) with NCI-H23; 1.72 µM (inactive) in the assay with Malme-3M; 12.3 µM (inactive) in the assay on UO-31. Also, the GI50 in the assay with Hs-578T is 15.1 µM (inactive); in the assay with MOLT-4, 0.857 µM (active); in the assay on OVCAR-5, 28.7 µM (inactive); in the assay with U-251 it was 12.9 µM (inactive); with CCRF-CEM, 1.27 µM (inactive); in the assay with M14, 13.4 µM (inactive). Further, the GI50 is 5.58 µM (inactive) in the assay with SW-620; > 5 µM (inactive) with EKVX; 18.5 µM (inactive) in the assay with SNB-19; 15.6 µM (inactive) in the assay with SF-295; 8.13 µM (inactive) with UACC-257; 3.28 µM (inactive) in the assay on NCI-H522. Also, the GI50 in the assay with HCT-116 was 7.21 µM (inactive); in the assay with SF-539 it was 11.7 µM (inactive).
Turning to `COC(=O)c1ccc(/N=N/N(C)COc2ccc(C#N)cc2)cc1`, the GI50 with PC-3 was > 100 µM (inactive); in the assay on K562 it was 35.2 µM (inactive); in the assay on SN12C, > 100 µM (inactive); with NCI-H23, > 100 µM (inactive); with Malme-3M, > 100 µM (inactive); with UO-31 it was 77.3 µM (inactive). Moreover, the GI50 is 59.4 µM (inactive) in the assay on Hs-578T; 82.2 µM (inactive) in the assay with MOLT-4; 61 µM (inactive) in the assay with OVCAR-5; 98.6 µM (inactive) with U-251; 20.3 µM (inactive) with CCRF-CEM; > 100 µM (inactive) with M14. Moreover, the GI50 with SW-620 was 53.5 µM (inactive); in the assay on EKVX it was > 100 µM (inactive); with SNB-19, > 100 µM (inactive); in the assay with SF-295 it was 44.8 µM (inactive); in the assay on UACC-257, > 100 µM (inactive); with NCI-H522, > 100 µM (inactive). In addition, the GI50 in the assay on HCT-116 is 79.4 µM (inactive); with SF-539, > 100 µM (inactive).
For `Oc1ccc(Oc2cc3c(cc2Oc2ccc(O)cc2)-c2nc-3nc3[nH]c(nc4nc(nc5[nH]c(n2)c2cc(Oc6ccc(O)cc6)c(Oc6ccc(O)cc6)cc52)-c2cc(Oc5ccc(O)cc5)c(Oc5ccc(O)cc5)cc2-4)c2cc(Oc4ccc(O)cc4)c(Oc4ccc(O)cc4)cc32)cc1`, the GI50 was > 100 µM (inactive) in the assay on PC-3; > 100 µM (inactive) in the assay with K562; > 100 µM (inactive) in the assay on SN12C; > 100 µM (inactive) in the assay on NCI-H23; 19.1 µM (inactive) in the assay with Malme-3M; > 100 µM (inactive) in the assay with UO-31. For the same compound, the GI50 is > 100 µM (inactive) with Hs-578T; > 100 µM (inactive) in the assay on MOLT-4; 85.5 µM (inactive) with OVCAR-5; > 100 µM (inactive) in the assay on U-251; > 100 µM (inactive) in the assay with CCRF-CEM; 16.7 µM (inactive) in the assay with M14. The GI50 is > 100 µM (inactive) with SW-620; > 100 µM (inactive) in the assay with EKVX; > 100 µM (inactive) in the assay with SNB-19; 37.8 µM (inactive) with SF-295; > 100 µM (inactive) with UACC-257; > 100 µM (inactive) in the assay with NCI-H522. In addition, the GI50 in the assay on HCT-116 and in the assay with SF-539 was > 100 µM (inactive) throughout.
Regarding `COC(=O)c1c(O)ccc2c1c1c(n2Cc2ccc(OC)cc2)C(=O)c2ccccc2C1=O`, the GI50 is 5.2 µM (inactive) with PC-3; 3.28 µM (inactive) in the assay with K562; 2.78 µM (inactive) with SN12C; 11 µM (inactive) with NCI-H23; 39.9 µM (inactive) in the assay with Malme-3M; 3.92 µM (inactive) in the assay on UO-31. Besides, the GI50 was 13.9 µM (inactive) in the assay on Hs-578T; 0.139 µM (active) in the assay with MOLT-4; 25.4 µM (inactive) in the assay on OVCAR-5; 8.67 µM (inactive) in the assay on U-251; 0.128 µM (active) in the assay with CCRF-CEM; 10.7 µM (inactive) in the assay with M14. Moreover, the GI50 is 18.6 µM (inactive) in the assay on SW-620; 35.3 µM (inactive) in the assay with EKVX; 22.5 µM (inactive) with SNB-19; 14.2 µM (inactive) in the assay with SF-295; 26.3 µM (inactive) in the assay on UACC-257; 4.1 µM (inactive) in the assay with NCI-H522. The GI50 is 6.3 µM (inactive) in the assay with HCT-116 and 14.4 µM (inactive) with SF-539.
